Columns and labels:
[1] = system: olfactory sensory neurons; experiment: Ca2+ imaging of dissociated olfactory sensory neurons (Fura-2); assay type: cell-based, mouse; details: 50 μM each; 6 independent neurons (FIG. 2)
Text: The olfactory epithelium containing native olfactory neurons from a mouse was isolated and dissociated into single cells and then transferred to a dissociation buffer for a gentle mechanical and enzymatic dissociation. In order to optimize the dissociation protocol, the general procedure for making fresh dissociation buffer was followed as set forth in Araneda et al. (2004), A Pharmacological Profile of the Aldehyde Receptor Repertoire in Rat Olfactory Epithelium. Journal of Physiology: 555:743-756 with the following modifications: DNAse I instead of DNAse II, Ca2+ concentration elevated to 5 mM and pH adjusted at 7.35 at 32°. Dissociated neurons were then seeded on a coverslip allowing the screening of >2,500 cells by fluorescence microscopy. The cells were then loaded with a calcium sensitive dye (Fura-2 AM) for 30 minutes at 31° C. and transferred onto a microscope ready for screening. […]
Olfactory neurons that responded to indole and skatole were identified by stimulating receptors with 50 μm indole followed by 50 μm skatole and monitoring the intracellular Ca2+ flux indicated by changes in Fura-2 fluorescence. […] Average Fluorescence Intensity, relative fluorescent unit as a result of a ratiometric 340/380 nm recordings.

[2] = target: T1, OR11H6 (Homo sapiens, UniProt Q8NGC7); experiment: cell-based calcium-flux assay, HEK293T with Gα15; details: dose-response curves FIG. 6D-J
T1 construct: expressed in transfected cells
T1 sequence (Q8NGC7 1-330): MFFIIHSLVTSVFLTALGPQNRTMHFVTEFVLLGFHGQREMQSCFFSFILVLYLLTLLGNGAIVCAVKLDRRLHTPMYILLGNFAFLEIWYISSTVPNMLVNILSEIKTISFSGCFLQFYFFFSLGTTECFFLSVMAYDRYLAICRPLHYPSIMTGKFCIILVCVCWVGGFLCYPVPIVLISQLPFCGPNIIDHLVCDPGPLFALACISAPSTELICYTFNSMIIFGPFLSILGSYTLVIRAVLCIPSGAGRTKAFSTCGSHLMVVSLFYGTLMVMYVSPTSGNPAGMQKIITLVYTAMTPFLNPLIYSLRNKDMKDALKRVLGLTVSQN
Text: (§1) The activity of candidate human indole and skatole malodors receptors OR52N2 (SEQ ID NO: 11 and SEQ ID NO: 12), OR11G2 (SEQ ID NO: 13 and SEQ ID NO: 14, OR5AC2 (SEQ ID NO: 75 and SEQ ID NO: 76), OR4C15 (SEQ ID NO: 79 and SEQ ID NO: 80), OR8S1 (SEQ ID NO: 83 and SEQ ID NO: 84), OR11H6 (SEQ ID NO: 15 and SEQ ID NO: 16) and OR11H4 (SEQ ID NO: 49 and SEQ ID NO: 50) and candidate mouse indole and skatole malodors receptors Olfr665 (SEQ ID NO: 9 and SEQ ID NO 10) and Olfr740 (SEQ ID NO: 1 and SEQ ID NO 2) were confirmed in cell-based calcium-flux assays (FIGS. 6A to 6J). Cells stably co-expressing Rho-tagged human OR52N2 (FIG. 6A, B) or OR11G2 (FIG. 6C) and Gα15 (SEQ ID NO: 25) were exposed to increasing concentrations of skatole or indole. FIG. 6B is a repeat experiment showing similar activity of OR52N2 with indole and skatole. Odorant-induced OR52N2 or OR11G2 activity was detected by measuring the maximum Calcium 5 dye (Molecular Devices) fluorescence change following odorant exposure. Activity is defined as the baseline corrected Relative Fluorescent Units (RFU) ratios normalized to the highest RFU in the experiment in FIG. 6A. […] A cell line lacking a receptor, for example hOR52N2, was used as a control for non-specific activity at high concentrations (‘Indole control’ and ‘Skatole control’). The human receptor OR52N2 (SEQ ID NO: 11 and SEQ ID NO: 12) was identified because of its sequence similarity to mouse Olfr665 (SEQ ID NO: 10), an indole/skatole receptor isolated from olfactory neurons responding to both indole and skatole. The human receptor OR11G2 (SEQ ID NO: 13 and SEQ ID NO: 14) was identified because of its sequence similarity to mouse Olfr740 (SEQ ID NO: 2), an indole/skatole receptor isolated from olfactory neurons responding to both indole and skatole. The receptors were modified with the Rho sequence and stably expressed in HEK 293T cells. Further examples show indole and skatole dose-response curves for human receptors OR5AC2, OR4C15, OR8S1, OR11H6, OR11H4 and mouse receptors Olfr665 and Olfr740 (FIG. 6D-J). The human receptor OR5AC2 (SEQ ID NO: 75 and SEQ ID NO: 76) was identified because of its sequence similarity to mouse Olfr207 (SEQ ID NO: 78), a receptor isolated from olfactory neurons responding to both indole and skatole. The human receptor OR4C15 (SEQ ID NO: 79 and SEQ ID NO: 80) was identified because of its sequence similarity to mouse Olfr211 (SEQ ID NO: 82), a receptor isolated from olfactory neurons responding to both indole and skatole. The human receptor OR8S1 (SEQ ID NO: 83 and SEQ ID NO: 84) was identified because of its sequence similarity to mouse Olfr257 (SEQ ID NO: 86), a receptor isolated from olfactory neurons responding to both indole and skatole. The human receptor OR11H6 (SEQ ID NO: 15 and SEQ ID NO: 16) was identified because of its sequence similarity to mouse Olfr745 (SEQ ID NO: 8), a receptor isolated from olfactory neurons responding to both indole and skatole. The human receptor OR11H4 (SEQ ID NO: 49 and SEQ ID NO: 50) was identified because of its sequence similarity to mouse Olfr746 (SEQ ID NO: 38), a receptor isolated from olfactory neurons responding to both indole and skatole. The mouse receptor Olfr665 (SEQ ID NO: 9 and SEQ ID NO: 10) was identified directly from NGS data from isolated olfactory neurons responding to both indole and skatole. The mouse receptor Olfr740 (SEQ ID NO: 1 and SEQ ID NO: 2) was identified directly from NGS data from isolated olfactory neurons responding to both indole and skatole. Co-expression of the human G alpha subunit Gα15 activates the Gq transduction pathway that leads to an internal Ca2+ increase upon binding to the appropriate ligand.

[3] = system: Olfr665; experiment: cell-based calcium-flux assay, HEK293T with Gα15; parameters: species or system mouse; details: dose-response curves FIG. 6D-J
Text: as §1, with “The human receptor OR11H6 (SEQ ID NO: 15 and SEQ ID NO: 16) was identified because of its sequence similarity to mouse Olfr745 (SEQ ID NO: 8), a receptor isolated from olfactory neurons responding to both indole and skatole. The human receptor OR11H4 (SEQ ID NO: 49 and SEQ ID NO: 50) was identified because of its sequence similarity to mouse Olfr746 (SEQ ID NO: 38), a receptor isolated from olfactory neurons responding to both indole and skatole. The mouse receptor Olfr665 (SEQ ID NO: 9 and SEQ ID NO: 10) was identified directly from NGS data from isolated olfactory neurons responding to both indole and skatole. The mouse receptor Olfr740 (SEQ ID NO: 1 and SEQ ID NO: 2) was identified directly from NGS data from isolated olfactory neurons responding to both indole and skatole. Co-expression of the human G alpha subunit Gα15 activates the Gq transduction pathway that leads to an internal Ca2+ increase upon binding to the appropriate ligand.” left out

[4] = system: Olfr740; experiment: cell-based calcium-flux assay, HEK293T with Gα15; parameters: species or system mouse; details: dose-response curves FIG. 6D-J
Text: as §1, with “The human receptor OR11H6 (SEQ ID NO: 15 and SEQ ID NO: 16) was identified because of its sequence similarity to mouse Olfr745 (SEQ ID NO: 8), a receptor isolated from olfactory neurons responding to both indole and skatole. The human receptor OR11H4 (SEQ ID NO: 49 and SEQ ID NO: 50) was identified because of its sequence similarity to mouse Olfr746 (SEQ ID NO: 38), a receptor isolated from olfactory neurons responding to both indole and skatole. The mouse receptor Olfr665 (SEQ ID NO: 9 and SEQ ID NO: 10) was identified directly from NGS data from isolated olfactory neurons responding to both indole and skatole. The mouse receptor Olfr740 (SEQ ID NO: 1 and SEQ ID NO: 2) was identified directly from NGS data from isolated olfactory neurons responding to both indole and skatole. Co-expression of the human G alpha subunit Gα15 activates the Gq transduction pathway that leads to an internal Ca2+ increase upon binding to the appropriate ligand.” left out

Compound | activation of olfactory sensory neurons (intracellular Ca2+ flux, Fura-2 fluorescence) [1] | receptor response in vitro [2] | receptor activation in vitro [3] | receptor activation in vitro [4]
Cc1c[nH]c2ccccc12 [skatole, 3-methyl indole] | activated | responded | activated | activated
c1ccc2[nH]ccc2c1 [indole] | activated | responded | activated | activated
